For eleven molecules, TGI and GI50 results are on record in PubChem BioAssay (NCI).

Molecules are shown by their SMILES.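 Five concentrations, 48 hours, 96-well plates. GI50: concentration for 50% inhibition of growth. TGI marks complete inhibition of growth.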

Test systems include 786-0 renal; HOP-18 NSCLC; LXFL 529 NSCLC; M19-MEL melanoma; XF 498 CNS; SN12K1 renal; DLD-1 colon; P388 leukemia; MDA-MB-435; DU-145 prostate; T-47D breast; HS 578T breast; BT-549 breast; MDA-MB-231 breast.
Holding throughout (assay): NCI tumour cell line growth inhibition, 48 h

For the molecule `Cc1ccc(S(=O)(=O)Nc2cccc3c(=O)[nH]cnc23)cc1`, the TGI in the assay with 786-0 renal, in the assay with HOP-18 NSCLC, with LXFL 529 NSCLC, in the assay on M19-MEL melanoma and in the assay with XF 498 CNS was greater than 100 µM throughout.

`CN(C)CCNC(=O)c1cccc2c(=O)c3ccccc3oc12`: the TGI is greater than 100 µM in the assay on HOP-18 NSCLC; 47.5 µM in the assay with SN12K1 renal; 56.7 µM with M19-MEL melanoma; greater than 100 µM in the assay with DLD-1 colon; 52.2 µM in the assay on P388 leukemia; greater than 93.9 µM with XF 498 CNS.

Take `COC1OC(CS(=O)(=O)O)C(O)C(O)C1O` (stereo not given): the TGI in the assay with MDA-MB-435, in the assay with DU-145 prostate, with T-47D breast, with HS 578T breast and in the assay on BT-549 breast was greater than 100 µM throughout.

On to `O=C1C=C(C2OC(CO)C(O)C2O)C(=O)N1` (stereo not given), for which the TGI in the assay with HOP-18 NSCLC was greater than 100 µM; in the assay with SN12K1 renal, greater than 100 µM; in the assay on M19-MEL melanoma, greater than 100 µM; with DLD-1 colon, greater than 100 µM; in the assay on P388 leukemia it was 60.9 µM.

Regarding `C=C1C(=O)OC2/C=C(\C(=O)O)CC/C=C(\C)CC(OC(=O)/C=C(\C)CC)C12` (stereo not given), the TGI in the assay on HOP-18 NSCLC is 39.9 µM; in the assay on LXFL 529 NSCLC, 31.6 µM; in the assay with M19-MEL melanoma it was 29.1 µM; in the assay with DLD-1 colon, 43.6 µM; in the assay on XF 498 CNS, 32.5 µM.

For the molecule `O=C(c1ccccc1)c1ccc2n[se]nc2c1`, the TGI in the assay on LXFL 529 NSCLC and in the assay with DLD-1 colon was greater than 100 µM in each case.

Take `CC1(C)[C@@H]2CC[C@]1(C)[C@H](OC(=O)CSC#N)C2`: the TGI is greater than 100 µM with MDA-MB-435; 34.1 µM in the assay on 786-0 renal; greater than 100 µM in the assay with DU-145 prostate; greater than 100 µM with T-47D breast; greater than 100 µM in the assay with HS 578T breast; greater than 100 µM in the assay with MDA-MB-231 breast. In the assay with BT-549 breast, this molecule had a TGI greater than 100 µM.

Turning to `CC1=C2C(O)C(C(C)C(=O)N(C)C)CCC2(C)C=CC1=O` (stereo not given), the TGI in the assay with HOP-18 NSCLC, with SN12K1 renal, in the assay with M19-MEL melanoma, in the assay on DLD-1 colon, in the assay with P388 leukemia and with XF 498 CNS was greater than 100 µM in each case.

As to `CC(=O)C(C(c1ccccc1)N1CCOCC1)N1CCOCC1` (stereo not given), the TGI in the assay with MDA-MB-435, in the assay with 786-0 renal, with DU-145 prostate, in the assay with T-47D breast, with HS 578T breast and in the assay with MDA-MB-231 breast was greater than 100 µM in each case. In the assay on BT-549 breast, this molecule gave a TGI greater than 100 µM.

For the molecule `CCCC(C)c1ccc(OCCCCCCN2CCNCC2)cc1` (stereo not given), the GI50 is 1.7 µM in the assay with MDA-MB-435; 2.25 µM in the assay with DU-145 prostate; 1.71 µM in the assay with T-47D breast; 1.87 µM with HS 578T breast; 1.75 µM in the assay with MDA-MB-231 breast; 3.08 µM in the assay on BT-549 breast. The TGI came out at 3.22 µM in the assay on MDA-MB-435; 5.43 µM in the assay on DU-145 prostate; 3.72 µM in the assay on T-47D breast; 4.74 µM in the assay on HS 578T breast; 3.58 µM in the assay on MDA-MB-231 breast; 12.4 µM in the assay on BT-549 breast.

For the molecule `CCOP(=Nc1ccc(N(C)C)cc1)(OCC)OCC`, the TGI in the assay on MDA-MB-435, in the assay on DU-145 prostate, with HS 578T breast, in the assay on MDA-MB-231 breast and in the assay on BT-549 breast was greater than 100 µM in each case.
